Biological target: T1, TLR9 (Homo sapiens, UniProt Q9NR96)
T1 construct: expressed in transfected cells; host or cells: HEK293
T1 sequence (Q9NR96 26-1032): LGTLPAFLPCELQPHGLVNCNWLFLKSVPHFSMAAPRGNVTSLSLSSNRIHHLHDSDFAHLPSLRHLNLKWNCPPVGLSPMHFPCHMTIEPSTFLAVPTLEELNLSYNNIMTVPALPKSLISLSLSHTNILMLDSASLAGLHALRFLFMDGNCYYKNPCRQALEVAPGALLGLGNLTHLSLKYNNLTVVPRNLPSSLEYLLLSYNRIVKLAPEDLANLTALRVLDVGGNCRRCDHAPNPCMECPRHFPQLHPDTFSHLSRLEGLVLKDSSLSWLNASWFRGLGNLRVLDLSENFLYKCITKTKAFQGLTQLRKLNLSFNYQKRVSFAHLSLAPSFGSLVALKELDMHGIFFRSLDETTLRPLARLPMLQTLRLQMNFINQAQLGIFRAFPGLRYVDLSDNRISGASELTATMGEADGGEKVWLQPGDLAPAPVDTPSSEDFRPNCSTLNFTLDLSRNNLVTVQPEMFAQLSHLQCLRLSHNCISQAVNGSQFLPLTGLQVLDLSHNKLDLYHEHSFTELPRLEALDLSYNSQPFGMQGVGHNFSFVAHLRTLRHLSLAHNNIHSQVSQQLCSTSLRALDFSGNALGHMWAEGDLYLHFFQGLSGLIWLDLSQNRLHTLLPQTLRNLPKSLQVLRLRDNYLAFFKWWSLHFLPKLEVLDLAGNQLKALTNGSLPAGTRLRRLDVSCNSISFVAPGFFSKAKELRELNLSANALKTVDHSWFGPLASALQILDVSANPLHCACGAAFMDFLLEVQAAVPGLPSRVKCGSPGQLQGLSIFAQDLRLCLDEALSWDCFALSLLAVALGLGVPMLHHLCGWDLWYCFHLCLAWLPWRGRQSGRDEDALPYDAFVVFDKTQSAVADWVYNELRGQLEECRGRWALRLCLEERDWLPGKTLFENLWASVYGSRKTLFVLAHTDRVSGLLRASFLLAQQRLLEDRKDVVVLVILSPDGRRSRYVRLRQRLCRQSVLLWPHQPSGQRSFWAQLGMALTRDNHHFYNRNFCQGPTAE
Test: TLR9 screening of (+)-morphinan library, SEAP reporter in HEK293 cells expressing TLR9
Type: cell-based
Conditions: activator ODN2006; for OD 650 nm (mean ± sd): control (no activator) 0.14, activator 1.42 OD; for inhibition at 0.1 µM: HEK293, read-out: % Inhibition (mean), 100 nM; for inhibition at 10 µM: HEK293, read-out: % Inhibition (mean), 10 μM
Protocol: The secreted alkaline phosphatase reporter is under the control of a promoter inducible by the transcription factor NF-κB. A library of more than 100 (+)-morphinan compounds was screened for TLR9 antagonist activity by assessing NF-κB activation in the HEK293 cells expressing TLR9. This reporter gene allows the monitoring of signaling through the TLR, based on the activation of NF-κB.
In a 96-well plate (200 μL total volume) containing 50,000 cells/well, 20 μL of each sample compound was added to wells, in triplicate, followed by a 30 minute incubation at 37° C. and 5% CO2. After the 30 minutes of incubation, 20 μL of the activator ODN2006 was added to each well. The media added to the wells was designed for the detection of NF-κB induced SEAP expression. After a 16-20 hr incubation period, the OD at 650 nm was read on a Beckman Coulter AD 340C Absorbance Detector. All compounds were tested at concentrations of 10 μM and 100 nM.

| Compound | OD 650 nm (mean ± sd) (100 nM) [OD] | OD 650 nm (mean ± sd) (10 μM) [OD] | inhibition at 0.1 µM [%] | inhibition at 10 µM [%] | % Inhibition (mean) (100 nM, 0.1 µM) [%] | % Inhibition (mean) (10 μM) [%] |
| --- | --- | --- | --- | --- | --- | --- |
| COC(=O)/C=C/c1cc(OC)c2c3c1CC1C4CCC(=O)[C@@H](O2)[C@@]34CCN1CC1CC1 (stereo partly shown) [II-15] | 1.22 ± 0.06 | 0.23 ± 0.03 | 14 | 84 |  |  |
| C=CCN1CC[C@@]23c4c5ccc(O)c4O[C@@H]2C(=O)CC[C@]3(O)[C@@H]1C5 [II-64] | 1.31 ± 0.14 | 0.98 ± 0.01 | 8 | 31 |  |  |
| COc1ccc2c3c1O[C@@H]1C(=O)CC[C@@H]4[C@H](C2)N(C(=O)C2CCC2)CC[C@@]314 [II-85] | 1.45 ± 0.04 | 1.45 ± 0.04 | -2 | -2 |  |  |
| COC1=CC=C2[C@@H]3Cc4ccc(OC)c5c4[C@]2(CCN3C)[C@@H]1O5 [II-34] | 1.39 ± 0.05 | 0.94 ± 0.08 | 2 | 34 |  |  |
| COC(=O)/C=C/c1cc(OC)c(O)c2c1CC1C3CCC(=O)C[C@@]23CCN1CC1CC1 (stereo partly shown) [II-14] | 1.18 ± 0.05 | 0.13 ± 0.00 | 17 | 91 |  |  |
| C=CCN1CC[C@@]23CC(=O)C(OC)C[C@@H]2[C@@H]1Cc1ccc(OC)c(O)c13 (stereo partly shown) [Compound I-16] | 1.50 ± 0.01 | 0.91 ± 0.04 | -5 | 36 |  |  |
| COc1ccc2c3c1O[C@@H]1C(OC)(OC)CCC4[C@H](C2)N(CC2CC2)CC[C@]341 (stereo partly shown) [II-99] | 1.32 ± 0.00 | 0.14 ± 0.01 | 7 | 90 |  |  |
| COc1ccc2c3c1O[C@@H]1C(OC)(OC)C(Br)CC4[C@H](C2)N(C)CC[C@]341 (stereo partly shown) [II-101] | 1.35 ± 0.06 | 0.94 ± 0.02 | 5 | 34 |  |  |
| COc1cc(-c2ccoc2)c2c(c1O)[C@@]13CCN(CC4CC4)C(C2)C1CCC(=O)C3 (stereo partly shown) [Compound I-13] | 1.34 ± 0.12 | 0.13 ± 0.01 | 6 | 91 |  |  |
| COC1=C[C@]2(O)[C@@H]3Cc4ccc(OC)c(O)c4[C@]2(CCN3C)CC1=O [Compound I-30] | 1.25 ± 0.11 | 0.94 ± 0.05 | 12 | 33 |  |  |
| COc1ccc2c3c1O[C@@H]1C(=O)CC[C@@H]4[C@H](C2)NCC[C@@]314 [II-12] | 1.12 ± 0.08 | 0.81 ± 0.03 | 21 | 43 |  |  |
| COc1ccc2c(c1O)[C@@]13CCN(C)[C@@H](C2)[C@H]1CC(OC)C(O)C3 (stereo partly shown) [Compound I-10] | 1.32 ± 0.04 | 1.04 ± 0.08 | 7 | 27 |  |  |
| COc1ccc2c3c1O[C@@H]1C(O)CC[C@@H]4[C@H](C2)N(CC2CCC2)CC[C@@]314 (stereo partly shown) [II-28] | 1.32 ± 0.08 | 0.87 ± 0.03 | 7 | 39 |  |  |
| COc1ccc2c3c1O[C@@H]1C(O)CC[C@]4(O)[C@H](C2)N(CC2CC2)CC[C@@]314 (single isomer, unassigned) [II-53a] | 1.22 ± 0.05 | 1.32 ± 0.13 |  |  | 14 | 7 |
| CO[C@]12CCC(=O)[C@H]3Oc4c(O)ccc5c4[C@]31CCN(CC1CC1)[C@H]2C5 [II-79] | 1.07 ± 0.03 | 1.06 ± 0.11 | 25 | 25 |  |  |
| COc1cc(-c2ccoc2)c2c3c1O[C@@H]1C(=O)CCC4C(C2)N(CC2CC2)CC[C@]341 (stereo partly shown) [II-26] | 1.08 ± 0.06 | 0.12 ± 0.00 | 24 | 92 |  |  |

| Compound | OD 650 nm (mean ± sd) (100 nM) [OD] | OD 650 nm (mean ± sd) (10 μM) [OD] | inhibition at 0.1 µM [%] | inhibition at 10 µM [%] | % Inhibition (mean) (100 nM, 0.1 µM) [%] | % Inhibition (mean) (10 μM) [%] |
| --- | --- | --- | --- | --- | --- | --- |
| C=CCN1CC[C@@]23c4c5ccc(OC)c4O[C@@H]2[C@H](O)CC[C@]3(O)[C@@H]1C5 (stereo in doubt) [II-48] |  |  |  | 13 |  |  |
| Oc1ccc2c3c1O[C@@H]1[C@H](O)CC[C@]4(O)[C@H](C2)N(CC2CCC2)CC[C@@]314 [II-82] | 1.37 ± 0.02 | 0.49 ± 0.03 | 4 | 65 |  |  |
| COc1ccc2c3c1O[C@@H]1C(NCCO)CC[C@@H]4[C@H](C2)N(C)CC[C@@]314 (stereo partly shown) [II-10] | 0.24 ± 0.02 | 0.10 ± 0.01 | 83 | 93 |  |  |
| COC1=CCC2[C@@H]3Cc4ccc(OC)c5c4[C@]2(CCN3C)[C@@H]1O5 (stereo partly shown) [II-96] | 1.15 ± 0.06 | 0.42 ± 0.02 | 19 | 71 |  |  |
| COc1ccc2c3c1O[C@@H]1C(NC(C)=O)CC[C@]4(O)[C@H](C2)N(C)CC[C@@]314 (stereo partly shown) [II-42] | 1.00 ± 0.03 | 0.14 ± 0.02 | 29 | 90 |  |  |
| COc1ccc2c3c1O[C@@H]1CCC[C@]4(O)[C@H](C2)N(C)CC[C@@]314 [II-44] | 1.18 ± 0.02 | 1.03 ± 0.12 | 17 | 27 |  |  |
| C=CCN1CC[C@@]23c4c5c(-c6ccoc6)cc(OC)c4O[C@@H]2C(=O)CCC3C1C5 (stereo partly shown) [II-2] | 1.23 ± 0.05 | 0.12 ± 0.01 | 13 | 92 |  |  |
| COC(=O)[C@@H](C)NC1CCC2C3Cc4ccc(OC)c5c4[C@]2(CCN3C)C1O5 (stereo partly shown) [II-92] | 1.09 ± 0.03 | 0.73 ± 0.06 | 23 | 48 |  |  |
| C=CCN1CC[C@@]23c4c5ccc(OC)c4O[C@@H]2C(=C)CC[C@@H]3[C@@H]1C5 [II-22] | 1.31 ± 0.19 | 0.75 ± 0.06 | 8 | 47 |  |  |
| CC(=O)NC1CC[C@]2(O)[C@@H]3Cc4ccc(O)c5c4[C@]2(CCN3CC2CC2)[C@@H]1O5 (stereo partly shown) [II-75] | 1.08 ± 0.02 | 0.91 ± 0.11 | 24 | 36 |  |  |
| COc1ccc2c3c1O[C@@H]1C(OC(C)=O)=CC[C@]4(O)[C@H](C2)N(C(C)=O)CC[C@@]314 [II-83] | 1.40 ± 0.13 | 1.11 ± 0.09 | 1 | 22 |  |  |
| O=C1CC[C@@H]2[C@@H]3Cc4ccc(OCc5ccccc5)c5c4[C@]2(CCN3CC2CC2)[C@@H]1O5 [II-88] | 1.12 ± 0.15 | 0.13 ± 0.01 | 21 | 91 |  |  |
| C=CCN1CC[C@@]23CC(=O)CCC2C1Cc1ccc(OC)c(O)c13 (stereo partly shown) [Compound I-7] | 1.14 ± 0.03 | 0.16 ± 0.01 | 20 | 89 |  |  |
| CCOC(=O)N1CC[C@@]23CC(=O)CCC2C1Cc1c(Br)cc(OC)c(O)c13 (stereo partly shown) [Compound I-11] | 1.49 ± 0.04 | 1.98 ± 0.09 | -5 | -39 |  |  |
| C=CCN1CC[C@@]23c4c5ccc(OC)c4OC2C(O)CCC3C1C5 (stereo partly shown) [II-19] | 1.19 ± 0.03 | 0.15 ± 0.01 | 16 | 90 |  |  |

Reference: US10363251B2, “(+)-morphinans as antagonists of toll-like receptor 9 and therapeutic uses thereof” (Mallinckrodt LLC, priority 2009, dated 2019)
